Data published in patent US20150119352A1, “DINUCELOSIDE POLYPHOSPHATES FOR THE TREATMENT OF PAIN” (GlobalAcorn Ltd., priority 2012, published 2015).
Entries after “also recorded” stand apart in the source; their conditions may differ.

Experiments:
[1] = target: T1, rat homomeric P2X2 receptors (Rattus norvegicus, UniProt P49653); assay: Whole-cell patch clamp on HEK cells expressing rat homomeric P2X2 receptors; format: cell-based; conditions: 1 μM; 10 μM ATP
T1 construct: expressed in transfected cells; host or cells: HEK 293
T1 sequence (P49653 1-472): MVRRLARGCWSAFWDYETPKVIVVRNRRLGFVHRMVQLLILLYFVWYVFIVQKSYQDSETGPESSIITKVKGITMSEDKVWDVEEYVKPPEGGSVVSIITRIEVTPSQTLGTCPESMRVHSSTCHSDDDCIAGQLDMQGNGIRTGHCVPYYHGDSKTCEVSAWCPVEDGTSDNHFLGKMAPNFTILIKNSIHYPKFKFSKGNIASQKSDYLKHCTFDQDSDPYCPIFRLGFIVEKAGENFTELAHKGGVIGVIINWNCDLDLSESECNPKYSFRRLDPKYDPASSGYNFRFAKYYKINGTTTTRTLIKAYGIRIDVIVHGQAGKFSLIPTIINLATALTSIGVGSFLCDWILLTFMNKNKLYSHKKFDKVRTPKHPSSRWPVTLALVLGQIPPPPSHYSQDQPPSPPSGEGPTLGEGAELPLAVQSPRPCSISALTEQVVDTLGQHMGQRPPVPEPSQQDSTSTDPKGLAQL
Experimental: FIG. 4. […] A. Example traces of responses induced by 10 μM ATP applied for 2 s every 2 min to HEK cells expressing rat homomeric P2X2 receptors in the presence and absence of 1 μM AppNHppA. B. Comparison of currents induced by the full agonist of P2X2 receptors, ATP, in the presence of 1 μM AppNHppA (right) and absence (left). C. The time course of the current in the presence and absence of 1 μM AppNHppA. D. Comparison of currents induced by the full agonist of rat homomeric P2X4 and P2X7 receptors, ATP, in the presence of 1 μM AppNHppA (right) and absence (left). Experiments were performed as in FIG. 2.
(§1) Trigeminal, nodose, DRG neurons or HEK cells were recorded in the whole-cell configuration while being continuously superfused (at 2 mL/min) with control solution containing (in mM): 152 NaCl, 5 KCl, 1 MgCl2, 2 CaCl2, 10 glucose, and 10 HEPES; pH was adjusted to 7.4 with NaOH and osmolarity was adjusted to 320 mOsM with glucose. […] Responses to selective P2X3 receptor agonist α,β-methylene-ATP (α,β-meATP; resistant to ectoATPase hydrolysis, Sigma-Aldrich) were measured using an EPC-9 amplifier and HEKA Patch Master software (HEKA Electronik, Germany). Cells were voltage-clamped at −70 mV. In most cells, series resistance was compensated by 80%. […]

[2] = test system: native P2X3 receptors, nodose ganglia (NG) neurons; assay: α,β-meATP-induced currents in cultured nodose ganglia neurons; format: cell-based, rat; conditions: 1 μM
Experimental: Rat trigeminal (TG), nodose (NG) or dorsal root ganglion (DRG) neurons in culture were prepared as described previously (Sokolova et al., 2001; Simonetti et al., 2006). Neurons were plated on poly-L-lysine (0.2 mg/mL)-coated Petri dishes and cultured for 1 to 2 days under an atmosphere containing 5% CO2. Cells were used within 2 days of plating when they lacked processes. HEK293T cells were prepared as reported previously (Fabbretti et al., 2004; Sokolova et al., 2004) and transfected with rat full-length P2X3 cDNA subcloned into pIRES2-EGFP (Clontech, Mountain View, Calif., USA).
as §1
The peak amplitudes of the responses were measured using HEKA Patch Master software. […]

Structure (SMILES): Nc1ncnc2c1ncn2[C@@H]1O[C@H](COP(=O)(O)OP(=O)(O)NP(=O)(O)OP(=O)(O)OC[C@H]2O[C@@H](n3cnc4c(N)ncnc43)C(O)C2O)C(O)C1O (stereo in doubt) [AppNHppA]
- effect on P2X2 receptor-mediated currents [1]: not observed to produce any effects; also recorded: non-inhibitory effect
- inhibition of sustained residual component [2]: 2±4%
- inhibition (suppression) of the peak current ([2]; 10 μM α,β-meATP): 16.8±11.8%
